Several values for one entry are separate records, joined by “and”; a condition that tells them apart may be missing. Equal values may be shown once. Where a name gives a salt, the structure may show the parent alone.
Experiments:
lysozyme (14.3 kDa) = target: T1, lysozyme (14.3 kDa) (Gallus gallus, UniProt P00698); test: Photochemical labeling of lysozyme (LC/MS); assay type: biochemical, chicken; conditions: for irradiation time to complete reactivity: lysozyme labeling
T1 construct: Lysozyme (from chicken egg white, >40,000 units/mg of protein); purchased Sigma Aldrich; host or cells: chicken egg white
T1 sequence (P00698 19-147): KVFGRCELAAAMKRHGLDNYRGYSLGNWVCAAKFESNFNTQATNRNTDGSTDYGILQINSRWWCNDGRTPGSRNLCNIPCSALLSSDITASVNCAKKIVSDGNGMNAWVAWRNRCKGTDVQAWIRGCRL
Description: General Procedure B: Photochemical Irradiation of Peptides and Proteins: To a 2 mL Pyrex LC/MS vial (Thermo model #03-391-39) were sequentially added solutions containing the desired biomolecule, glutathione (GSH), pyridinium salt, and ammonium acetate (NH4OAc). The resulting solution was diluted to a final volume of 500 μL and then sparged using nitrogen for a minimum of 30 minutes prior to irradiation. The actively sparging solution was then placed in an EvoluChem™ PhotoRedOx Box photoreactor that was equipped with a Kessil, PR160 427 nm LED Lamp and was then irradiated (100% lamp intensity) for the designated time at room temperature while maintaining active sparging. The resultant reaction mixture was then analyzed directly by LC/MS. Analysis of labeling outcomes using LC/MS was performed either by extracted ion chromatogram intensities (method A) or by integrating the area under the peaks associated with peptide content (method B). These values were totaled, and estimated percentages were assigned according to relative intensities of peaks or ion counts.
Labeling of Lysozyme with Pyridinium Salt 2a (Lysozyme-2a Conjugate). Labeling of lysozyme (14.3 kDa) with the pyridinium salt 2a was performed by following general procedure B using the following solutions: lysozyme (27 μL, 182 μM, 10 μM final concentration), pyridinium salt 2a (200 μL, 500 μM, 200 μM final concentration), NH4+OAc (100 μL, 100 mM, pH=6.9, 20 mM final concentration), glutathione (15 μL, 10 mM, 300 μM final concentration), and water (158 μL) with a 100% intensity irradiation time of 60 minutes. The reaction mixture was analyzed directly by LC/MS using method A and was estimated to have proceeded in >95% conversion and a 10.9:1 mono:di labeled ratio and 10% glutathionylation of all unlabeled and labeled protein content was observed.
Labeling of Lysozyme with Pyridinium Salt 2b (Lysozyme-2b Conjugate). Labeling of lysozyme (14.3 kDa) with the pyridinium salt 2b was performed by following general procedure B using the following solutions: lysozyme (19 μL, 262 μM, 10 μM final concentration), 2b (181 μL, 554 μM, 200 μM final concentration), NH4OAc (50 μL, 200 mM, pH=6.9, 20 mM final concentration), glutathione (50 μL, 3 mM, 300 μM final concentration), and water (200 μL) with a 100% intensity irradiation time of 10 minutes. The reaction mixture was analyzed directly by LC/MS using method A and was estimated to have proceeded with 83% conversion. Partial oxidation at biotin obfuscated estimation of both oxidation and glutathionylation. Lysozyme-2b conjugate (retention time (Tr)=2.80-5.17 min).
Labeling of Lysozyme with Pyridinium Salt 2c (Lysozyme-2c Conjugate). Labeling of lysozyme (14.3 kDa) with the pyridinium salt 2c was performed by following general procedure B using the following solutions: lysozyme (19 μL, 262 μM, 10 μM final concentration), pyridinium salt 2c(367 μL, 680 μM, 500 μM final concentration), NH4OAc (50 μL, 200 mM, pH=6.9, 20 mM final concentration), glutathione (50 μL, 3 mM, 300 μM final concentration), and water (14 μL) with a 100% intensity irradiation time of 10 minutes. The reaction mixture was analyzed directly by LC/MS using method A and was estimated to have proceeded with 85% conversion and a 3.7:1 mono:di labeled ratio and 10% glutathionylation of all protein content was observed. Lysozyme-2c conjugate (retention time (Tr)=3.11-5.07 min).
Labeling of Lysozyme with Pyridinium Salt 2d (Lysozyme-2d Conjugate). Labeling of lysozyme (14.3 kDa) with the pyridinium salt 2d was performed by following general procedure B using the following solutions: Lysozyme (16.8 μL, 0.297 mM solution in H2O, final concentration […]), pyridinium salt 2d (91.8 μL, 1.09 mM solution in CH3CN/H2O (2:3), final concentration 200 μM), NH4OAc (50 μL, 200 mM in H2O, final concentration 20 mM, pH 6.9), glutathione (15 μL, 10 mMsolution in H2O, final concentration 300 μM), and water (326.4 μL) with a 100% intensity irradiation time of 20 minutes. […]

[1] = Fluorescence lifetime and emission measurements; assay type: physicochemical
Description: The emission spectra were generated by excitation of a 10 μM solution of either pyridinium salt 2a or pyridinium salt 2b in H2O. Analyses were performed at 375 nm excitation with an emission slit width of 5 nm and an excitation slit width of 5 nm. The emission wavelength was gathered from 400 nm to 600 nm.
FIGS. 9A-9D show fluorescence decay spectra of pyridinium salts 2a and 2b in selected solvents according to at least one embodiment of the present disclosure. Specifically, FIG. 9A is a fluorescence decay spectrum of pyridinium salt 2a in 1,2-dichloroethane, FIG. 9B is a fluorescence decay spectrum of pyridinium salt 2a in CH3CN, FIG. 9C is a fluorescence decay spectrum of pyridinium salt 2a in H2O, and FIG. 9D is a fluorescence decay spectrum of pyridinium salt 2b in H2O. The fluorescent decay spectra were generated with a 1-10 μM solution of pyridinium salt (10 μM for H2O and 1 μM for other solvents) using a GG420 long pass filter and a 375 nm excitation wavelength. The instrument response factor was measured using a highly diluted solution of LUDOX AS-30 colloidal silica in water and a ND1.0 filter. The concentration of LUDOX and the emission slit width were adjusted until the intensity of the instrument response function (IRF) was similar to the fluorescent decay intensity. The procedure given in the EasyLife X User's Manual was followed.

## COc1ccc2cc(-c3cc(C)[n+](N(C)C(=O)OCCCCCCN=[N+]=[N-])c(C)c3)ccc2c1 [Pyridinium salt 2d, 1-((((6-azidohexyl)oxy)carbonyl)(methyl)amino)-4-(6-methoxynaphthalen-2-yl)-2,6-dimethylpyridin-1-ium tetrafluoroborate]
Lysozyme (14.3 kDa); 200 μM pyridinium salt 2d, 300 μM glutathione, 20 minutes irradiation
  glutathionylation of all unlabeled and labeled protein content: 3% and 2%

## COc1ccc2cc(-c3cc(C)[n+](N(C)C(=O)OCCCCC[C@H]4SC[C@H]5NC(=O)N[C@H]54)c(C)c3)ccc2c1 (stereo in doubt) [Pyridinium salt 2b, 4-(6-methoxynaphthalen-2-yl)-2,6-dimethyl-1-(methyl(((5-((3aR,4R,6aS)-2-oxohexahydro-1H-thieno[3,4-d]imidazol-4-yl)pentyl)oxy)carbonyl)amino)pyridin-1-ium tetrafluoroborate]
Lysozyme (14.3 kDa)
  irradiation time to complete reactivity: less than 10 min
[1]; 10 μM in H2O, 375 nm excitation
  relative fluorescence quantum yield (ΦF1) pyridinium salt 2b: pyridinium salt 2a: 3.3
[1]; water, 375 nm excitation
  fluorescence lifetime τ1: 0.5 ns
  fluorescence lifetime τ2: 2.8 ns

## COC(=O)N(C)[n+]1c(C)cc(-c2ccc3cc(OC)ccc3c2)cc1C [Pyridinium salt 2a, 1-((methoxycarbonyl)(methyl)amino)-4-(6-methoxynapthalen-2-yl)-2,6-dimethylpyridin-1-ium tetrafluoroborate]
Lysozyme (14.3 kDa); 10 μM lysozyme, 200 μM pyridinium salt 2a, 300 μM glutathione, 20 mM NH4OAc pH 6.9, 427 nm, 60 minutes
  conversion: > 95% and 94%
Lysozyme (14.3 kDa); 200 μM pyridinium salt 2a, 300 μM glutathione, 60 minutes irradiation
  glutathionylation of all unlabeled and labeled protein content: 10%
Lysozyme (14.3 kDa)
  irradiation time to complete reactivity: about 60 min
[1]; 1,2-dichloroethane, 375 nm excitation
  fluorescence lifetime τ1: 4.1 ns
[1]; acetonitrile, 375 nm excitation
  fluorescence lifetime τ1: 3.3 ns
[1]; aqueous systems
  diffusion distance of the excited state (2a*): ≤ 30 Å
[1]; water, 375 nm excitation
  fluorescence lifetime τ1: 0.2548 ns and 0.3 ns
  fluorescence lifetime τ2: 3.399 ns and 3.4 ns

Source: US20240262844A1, “PYRIDINIUM SALTS AND METHODS OF USE” (UNIVERSITY OF WYOMING, priority 2023, published 2024)
